Tested on: Pseudomonas aeruginosa MB 2835
Assay: In vivo activity against Pseudomonas aeruginosa MB 2835 systemic infections in mice (Table X)
Set-up: species or system Pseudomonas aeruginosa; CD 1 female mice
Settings: for s.c./i.p. ED50 administration ratio: 10080 min; for ED50 i.p.: i.p. at 0 and 6 hours after infection; for ED50 i.p. / ED50 s.c.: multiplied by two doses, 7 days observation; for ED50 s.c.: s.c. at 0 and 6 hours after infection
Description: The in vivo activities of Tejeramycin, components A through G were determined against Pseudomonas aeruginosa MB 2835 infections in mice. Experimental systemic infections were produced in CD 1 female mice (Charles River Breeding Labs., Wilmington, Ma.), average body weight 19-22 grams, by the intraperitoneal (i.p.) injection of a suitably diluted overnight culture of Pseudomonas aeruginosa MB-2835 in brain heart infusion broth (Difco). The challenge dose varied from about 11-50 LD50 's LD50 =median lethal dose, the dose that should kill 50% of the infected, untreated mice). Under these conditions, the infected, untreated mice died within 48 hours.
The antibiotics were administered as aqueous solutions by intraperitoneal or subcutaneous (s.c.) injection at 0 and 6 hours after infection. At least four different dose levels of the antibiotics were used; each dose group consisted of five mice. […] Statist. Assoc. 42: 282-296, 1947.
From rich cuts 1-9e described in Tables III and IV, a series of seven samples were prepared for in vivo evaluation. Sample composition as well as in vivo results are summarized in Table X. Carbenicillin and gentamicin were included as controls.

Gentamicin
s.c./i.p. ED50 administration ratio (Example A): 23
ED50 i.p. (Example A): 0.013 mg
ED50 s.c. (Example A): 0.30 mg
s.c./i.p. ED50 administration ratio (Example B): 20
ED50 i.p. (Example B): 0.0063 mg
ED50 s.c. (Example B): 0.125 mg

CC1(C)S[C@@H]2[C@H](NC(=O)C(C(=O)O)c3ccccc3)C(=O)N2[C@H]1C(=O)O (stereo partly drawn) [Carbenicillin]
s.c./i.p. ED50 administration ratio (Example A): 3.2
ED50 i.p. (Example A): 5.31 mg
ED50 s.c. (Example A): 17.1 mg
s.c./i.p. ED50 administration ratio (Example B): 1.5
ED50 i.p. (Example B): 4.14 mg
ED50 s.c. (Example B): 6.04 mg

From patent US4656036A, “Antibiotics Tejeramycin and production thereof” (Merck & Co., Inc., priority 1985, dated 1987)
